Data published in patent US20240409963A1, “Use of Inhibitors to Increase Efficiency of Crispr/CAS Insertions” (AstraZeneca AB, priority 2021, published 2024).

Legend:
[1] = tested on: HEK293T cells; test: Different DNAPK inhibitors on precise gene editing outcomes, Example 8; details: for HDR to indel ratio / Precise KI fold increase: gINS + ssDNA; for Precise KI fold increase: vs DMSO; for MMEJ indels Mean / NHEJ indels Mean / Total editing Mean: sgRNA CD34 (gINS) + ssDNA, 70 hours post-transfection;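 for all read-outs here: cells transfected with plasmids for SpCas9-EGFP, editing outcomes quantified from genomic DNA by deep targeted amplicon sequencing with bioinformatic analysis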
Experimental: Cells allowed to attach for 12 hours before transfection. Cells were transfected with DNA plasmids encoding for SpCas9-EGFP and a sgRNAs targeting CD34 (gINS) in the presence of single-stranded oligonucleotide donor (ssDNA). 70 hours post-transfection cell confluence and EGFP-based transfection efficiencies were determined with the Incucyte S3. Genomic DNA was extracted and editing outcome was analysed through deep-targeted amplicon sequencing using bioinformatic analysis.

[2] = tested on: HEK293T cells; test: PolQ inhibitor ART558 titration on precise gene editing outcomes, Example 10; type: cell-based; details: HEK293T, with 1 μM AZD7648
Experimental: HEK293T cells were seeded into 96-well plates and allowed to attach for 20 hours.

SMILES	HDR to indel ratio ([1]; DNAPK inhibitor 0.3125 μM)	Precise KI fold increase ([1]; DNAPK inhibitor 0.3125 μM)	HDR to indel ratio ([1]; DNAPK inhibitor 0.625 μM)	Precise KI fold increase ([1]; DNAPK inhibitor 0.625 μM)	HDR to indel ratio ([1]; DNAPK inhibitor 1.25 μM)	Precise KI fold increase ([1]; DNAPK inhibitor 1.25 μM)	HDR to indel ratio ([1]; DNAPK inhibitor 5 μM)	Precise KI fold increase ([1]; DNAPK inhibitor 5 μM)	HDR to indel ratio ([1]; DNAPK inhibitor 10 μM)	Precise KI fold increase ([1]; DNAPK inhibitor 10 μM)	MMEJ indels Mean ([1]; DNAPK inhibitor 0.3125 μM)	NHEJ indels Mean ([1]; DNAPK inhibitor 0.3125 μM)	Total editing Mean ([1]; DNAPK inhibitor 0.3125 μM)	MMEJ indels Mean ([1]; DNAPK inhibitor 0.625 μM)	NHEJ indels Mean ([1]; DNAPK inhibitor 0.625 μM)	Total editing Mean ([1]; DNAPK inhibitor 0.625 μM)	MMEJ indels Mean ([1]; DNAPK inhibitor 1.25 μM)	NHEJ indels Mean ([1]; DNAPK inhibitor 1.25 μM)	Total editing Mean ([1]; DNAPK inhibitor 1.25 μM)	MMEJ indels Mean ([1]; DNAPK inhibitor 5 μM)	other results
[2H]c1nc(C)nc([2H])c1-c1cc(NC[C@@H](C)c2cccc3c(C(=O)NC)ccnc23)ncn1	0.3	1.5 fold	0.5	2.2 fold	0.7	2.4 fold	1.1	2.8 fold	1.1	2.7 fold	15.8	25.0	66.8	17.8	16.7	66.8	18.1	9.0	60.4	17.1	NHEJ indels Mean ([1]; DNAPK inhibitor 5 μM): 2.4; Total editing Mean ([1]; DNAPK inhibitor 5 μM): 55.0; MMEJ indels Mean ([1]; DNAPK inhibitor 10 μM): 17.3; NHEJ indels Mean ([1]; DNAPK inhibitor 10 μM): 2.0; Total editing Mean ([1]; DNAPK inhibitor 10 μM): 53.4
Cc1cccc(N(C)C(=O)[C@@H]2[C@H](O)CCN2c2nc(C)cc(C(F)(F)F)c2C#N)c1 [ART558]	–	–	–	–	–	–	–	–	–	–	–	–	–	–	–	–	–	–	–	–	precise knock-in frequencies of the single-stranded oligonucleotide donor ([2]; concentration-dependent): increases; unprecise DNA repair events ([2]; with increasing inhibitor concentration): decreases
Cc1nccnc1C(O)c1ccc(F)c(-c2ncnc3cc(N4CCOCC4)ccc23)c1 (centres unmarked) [TLR1, (4-fluoro-3-(7-morpholinoquinazolin-4-yl)phenyl) (3-methylpyrazin-2-yl) methanol]	0.4	1.9 fold	0.7	2.4 fold	0.9	2.6 fold	1.4	2.5 fold	1.5	2.0 fold	15.4	21.6	66.4	17.3	12.3	63.2	16.9	6.9	58.1	11.9	NHEJ indels Mean ([1]; DNAPK inhibitor 5 μM): 1.7; Total editing Mean ([1]; DNAPK inhibitor 5 μM): 44.5; MMEJ indels Mean ([1]; DNAPK inhibitor 10 μM): 9.2; NHEJ indels Mean ([1]; DNAPK inhibitor 10 μM): 1.3; Total editing Mean ([1]; DNAPK inhibitor 10 μM): 34.1
Cc1cc2ncnn2cc1Nc1ncc2c(n1)N(C1CCOCC1)CC(=O)N2C [TLR2, 5-methyl-2-((7-methyl-[1,2,4]triazolo[1,5-a]pyridin-6-yl)amino)-8-(tetrahydro-2H-pyran-4-yl)-7,8 dihydropteridin-6 (5H)-one]	0.6	2.3 fold	0.9	2.5 fold	1.0	2.3 fold	1.1	2.6 fold	1.1	2.1 fold	16.7	13.5	62.8	17.1	6.1	56.8	16.0	3.2	49.7	16.2	NHEJ indels Mean ([1]; DNAPK inhibitor 5 μM): 2.1; Total editing Mean ([1]; DNAPK inhibitor 5 μM): 50.9; MMEJ indels Mean ([1]; DNAPK inhibitor 10 μM): 13.6; NHEJ indels Mean ([1]; DNAPK inhibitor 10 μM): 1.8; Total editing Mean ([1]; DNAPK inhibitor 10 μM): 42.4
